A short description of series [1]: MTT cytotoxicity on SH-SY5Y cells. In kind it is cell-based, human. Particulars: human, SH-SY5Y neuroblastoma cells, MTT test, 24 h incubation; read-out: IC50, in vitro cytotoxicity on SH-SY5Y cells. The procedure:
(§1) Human neuroblastoma cell line SH-SY5Y was obtained from the European Collection of Cell Cultures (ECACC, Salisbury, UK). The cells were maintained in 75 cm^2 flasks at 37 °C in a humidified atmosphere with 5% CO2 and cultured in RPMI 1640 medium, supplemented with 10% fetal bovine serum and 2 mM L-glutamine.
(§2) MTT (Sigma-Aldrich Chemie GmbH, Schnelldorf, Germany) assay is based on interaction between tetrazolium dye 3-(4,5-dimethylthiazol-2-yl)-2,5-diphenyltetrazolium bromide and succinic dehydrogenase in the living cells’ mitochondria. In this reaction, the formed purple formazan crystals indicate the presence of viable cells. SH-SY5Y cells were seeded in 96-well microplates at a density 2.5 × 10^4 cells/well and allowed to attach to the well surface at 37 °C in a humidified atmosphere with 5% CO2 (24 h). Different concentrations of compounds ([…]) were added to cells and incubated for 24 h. For each concentration, a set of at least 8 wells were used. After the treatment, the solution in each well was substituted with MTT (3-(4,5-dimethylthiazol-2-yl)-2,5-diphenyltetrazolium bromide) solution (0.5 mg/mL in culture medium). The microplates were further incubated for 3 h at 37 °C and the obtained formazan crystals were dissolved by 100 µL/well of DMSO. The absorbance was measured in a multiplate reader Synergy 2 (BioTek Instruments, Inc, Highland Park, Winooski, VT, USA) at 570 nm (690 nm for background absorbance).
(§3) An important step in the development of new pharmacologically active compounds is the establishment of their safety profile. An in vitro toxicity evaluation was carried out on the neuroblastoma cell line SH-SY5Y, which is a well-established model in neuroscience. The neuroblastoma SH-SY5Y are human derived cells with relatively homogeneous neuroblast-like structure. The cells express a dopamine-β-hydroxylase and tyrosine hydroxylase enzyme activity, specific types of human proteins and protein isoforms. The possible neurotoxic effects of the potential drug candidates were measured by cell viability assay (MTT-test). The IC50 values were used as a robust parameter for comparison. The test compounds were dissolved in DMSO and serially diluted in cell culture medium to achieve final concentrations ranging from 1 to 500 µM; the culture medium containing DMSO in the corresponding concentration was used as untreated controls. A concentration dependent effect on cell viability was observed after 24 h incubation.

Series [2] in a line: Fe(II)-induced oxidative damage of lecithin (TBA-RS). Particulars: 90 µmol/L; for sample/control absorbance ratio (% of the control), lecithin peroxidation: lecithin 1 mg/mL, FeCl2 0.1 mmol/L. The procedure: The classical method of determining the TBA-reactive substances at 532 nm as described by Asakawa and Matsushita has been used. Two groups of measurement compositions named controls and samples were prepared in phosphate buffer (K2HPO4/KH2PO4, pH 7.4) for each of the used substrates. Both of them contained equivalent concentrations of lecithin (1 mg/mL) or 2-deoxyribose (0.5 mmol/L) and FeCl2 (0.1 mmol/L). In the controls, the tested hydrazones have been omitted and in the samples the effect of the newly designed compounds at the concentrations indicated below the figures has been determined. The obtained samples were incubated at 37 °C for 30 min. The reaction was stopped, and after adding 0.5 mL 2.8% trichloroacetic acid and 0.5 mL of thiobarbituric acid, the samples were heated in boiling water for 20 min. The lecithin containing samples were centrifuged at 3000 rpm for 20 min and the supernatant was aspired out. The results have been presented as a percentage of the control sample, treated only with ferrous iron where we expected maximum oxidative damage under the described conditions.

The subject of the next series is SH-SY5Y cells. As to the kind of experiment: MTT cytotoxicity on SH-SY5Y cells. In kind it is cell-based, human. Particulars: MTT test, 24 h incubation; read-out: IC50, in vitro cytotoxicity on SH-SY5Y cells. The protocol:
as §1, §2, §3
On the technique in general: Formazan colour is commonly taken as a measure of viable cells.

Series [3] addresses T1, human recombinant MAO-B (hMAO-B) enzyme (Homo sapiens, UniProt P27338).
T1 construct: purchased Invitrogen, USA
T1 sequence (P27338 1-520): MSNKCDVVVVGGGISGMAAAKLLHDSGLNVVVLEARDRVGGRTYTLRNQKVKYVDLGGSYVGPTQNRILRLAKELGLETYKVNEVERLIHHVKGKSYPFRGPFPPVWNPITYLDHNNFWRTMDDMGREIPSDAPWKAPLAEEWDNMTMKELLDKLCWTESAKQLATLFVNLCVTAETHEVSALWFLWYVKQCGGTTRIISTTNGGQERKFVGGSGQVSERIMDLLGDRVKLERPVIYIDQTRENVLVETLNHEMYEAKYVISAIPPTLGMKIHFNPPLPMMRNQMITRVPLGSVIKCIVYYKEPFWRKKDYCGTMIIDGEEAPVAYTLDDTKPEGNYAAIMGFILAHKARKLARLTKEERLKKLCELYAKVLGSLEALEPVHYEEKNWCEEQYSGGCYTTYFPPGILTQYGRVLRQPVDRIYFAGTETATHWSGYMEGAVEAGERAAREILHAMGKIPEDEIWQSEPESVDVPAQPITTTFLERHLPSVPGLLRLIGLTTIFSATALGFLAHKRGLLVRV
The experiment in a line: hMAO-B activity, Amplex UltraRed fluorometric method. In kind it is biochemical. Particulars: 1 µM. The procedure: The effects of the test compounds on human recombinant MAO-B (hMAO-B) enzyme were studied by the Amplex UltraRed reagent (Sigma-Aldrich Chemie GmbH) fluorometric method with small modifications. The working solutions of the compounds, reagents, hMAO-B, and reaction buffers were prepared according to the producer’s instructions. The tyramine hydrochloride was used as a substrate. The reaction mixture contained a stock solution of Amplex Red (10 mM in dimethyl sulfoxide), the reaction buffer (0.05 M sodium phosphate) at pH 7.4, and the storage solution of horseradish peroxidase (10 U/mL). There were pure MAO-B working solutions in the reaction buffer and MAO-B working solution containing hydrogen peroxide as controls. The final concentration of the test compounds in the well was 1 μM. The compounds together with hMAO-B were embedded in a 96-well plate (8 wells for each compound), and then the plate was incubated for 30 min (dark, at 37 °C). Thereafter, the reaction was initiated by 50 μL Mix Solution: Amplex®Red reagent, horseradish peroxidase, and tyramine as an enzyme substrate in the reaction buffer. The fluorescence was measured every 30 min at 0, 30, 60, 90, 120, and 150 min), in dark, while shaking the reaction mixture at constant temperature of 37 °C. The fluorimetric measurements were assessed using a Synergy 2 Microplate Reader.
Monoamine oxidase B catalyzes dopamine metabolism and oxidation leading to the formation of reactive oxygen species and reactive quinones, which provoke dopamine neurotoxicity and neurodegeneration. In the next experiments, the compounds showing the best safety profile and the most promising neuroprotective activity (3d, 3e, 3h, 3i, 3m, 3n, 3p) were evaluated for their potential inhibitory activity on hMAOB. Selegiline and rasagiline as potent MAO-B inhibitors were used as standard compounds for comparison.

pIC50: −log10 of the molar value. Some results are limits rather than exact numbers.

Broadly, the IC50 is the midpoint of a concentration-inhibition curve. The melting point is the temperature of the solid-liquid transition. As usually defined, the pIC50 is −log10 of the IC50, conventionally taken in molar units.

Turning to `O=C(CCn1c(=S)n(CCC(=O)NN=Cc2ccc(O)cc2)c2ccccc21)NN=Cc1ccc(O)cc1` [3g, 3,3′-(2-Thioxo-1H-benzo[d]imidazole-1,3(2H)-diyl)bis(N′-(4-hydroxybenzylidene)propanehydrazide)], the melting point was in the range of 281 to 283 °C. For the same compound, in series [1], the IC50 at 24 h was 77.8 µM.
For `COc1cc(C=NNC(=O)CCn2c(=S)n(CCC(=O)NN=Cc3ccc(O)c(OC)c3)c3ccccc32)ccc1O` [3b, 3,3′-(2-Thioxo-1H-benzo[d]imidazole-1,3(2H)-diyl)bis(N′-(4-hydroxy-3-methoxybenzylidene)propanehydrazide)] the same measures were 229 to 231 °C and 101 µM.
`O=C(CCn1c(=S)n(CCC(=O)NN=Cc2ccc(O)c(O)c2)c2ccccc21)NN=Cc1ccc(O)c(O)c1` [3j, 3,3′-(2-Thioxo-1H-benzo[d]imidazole-1,3(2H)-diyl)bis(N′-(3,4-dihydroxybenzylidene)propanehydrazide)] showed a melting point of 212 to 214 °C. In addition, in series [1], the IC50 at 24 h came to 187 µM. Also, in series [2], the “sample/control absorbance ratio (% of the control), lecithin peroxidation” value is “around 40%”.
In the case of `COc1ccc(C=NNC(=O)CCn2c(=S)n(CCC(=O)NN=Cc3ccc(OC)c(OC)c3)c3ccccc32)cc1OC` [3c, 3,3′-(2-Thioxo-1H-benzo[d]imidazole-1,3(2H)-diyl)bis(N′-(3,4 dimethoxybenzylidene)propanehydrazide)], the melting point was in the range of 239 to 241 °C. Further, in series [1], the IC50 at 24 h stood at 112 µM. Also, the “lecithin peroxidation effect compared with 3a (in words)” value in series [2] is recorded as “statistically identical effect to 3a”.
As to `COc1ccc(C=NNC(=O)CCn2c(=S)n(CCC(=O)NN=Cc3ccc(OC)c(O)c3)c3ccccc32)cc1O` [3o, 3,3′-(2-Thioxo-1H-benzo[d]imidazole-1,3(2H)-diyl)bis(N′-(3-hydroxy-4-methoxybenzylidene)propanehydrazide)], the melting point was 255 to 257 °C. In addition, the half-inhibitory concentration (IC50) at 24 h in series [1] is 73.6 µM.
`COc1cccc(C=NNC(=O)CCn2c(=S)n(CCC(=O)NN=Cc3cccc(OC)c3O)c3ccccc32)c1O` [3l, 3,3′-(2-Thioxo-1H-benzo[d]imidazole-1,3(2H)-diyl)bis(N′-(2-hydroxy-3-methoxybenzylidene)propanehydrazide)] had a melting point of 268 to 270 °C. Besides, the half-inhibitory concentration (IC50) at 24 h in series [1] is > 200 µM. Further, in the series on SH-SY5Y cells, the negative logarithm of the IC50 (pIC50) was 3.70.
`COc1cccc(O)c1C=NNC(=O)CCn1c(=S)n(CCC(=O)NN=Cc2c(O)cccc2OC)c2ccccc21` [3n, 3,3′-(2-Thioxo-1H-benzo[d]imidazole-1,3(2H)-diyl)bis(N′-(2-hydroxy-6-methoxybenzylidene)propanehydrazide)] returned a melting point of 272 to 274 °C. In series [1], the IC50 at 24 h is > 250 µM. For the same compound, the pIC50 in the series with SH-SY5Y cells was 3.57. In series [3], the “inhibitory effect on hMAOB activity (in words)” value was “statistically significant MAO-B inhibitory effects”.
In turn, `O=C(CCn1c(=S)n(CCC(=O)N/N=C/c2ccccc2)c2ccccc21)N/N=C/c1ccccc1` [3a] had a melting point of 246 to 248 °C. In addition, the concentration for half-maximal inhibition (IC50) at 24 h in series [1] worked out at 103 µM. The “sample/control absorbance ratio (% of the control), lecithin peroxidation” value in series [2] is given as 66.52%.
`COc1cc(/C=N/NC(=O)CCn2c(=S)n(CCC(=O)N/N=C/c3cc(O)c(O)c(OC)c3)c3ccccc32)cc(O)c1O` [3q, 3,3′-(2-Thioxo-1H-benzo[d]imidazole-1,3(2H)-diyl)bis(N′-(3,4-hydroxy-5-methoxybenzylidene)propanehydrazide)]: the melting point was 174 to 176 °C. In addition, the IC50 at 24 h in series [1] was determined as 77.7 µM. Further, the “sample/control absorbance ratio (% of the control), lecithin peroxidation” value in series [2] is recorded as “around 40%”.
Compound `O=C(CCn1c(=S)n(CCC(=O)NN=Cc2cccc(O)c2)c2ccccc21)NN=Cc1cccc(O)c1` [3f, 3,3′-(2-Thioxo-1H-benzo[d]imidazole-1,3(2H)-diyl)bis(N′-(3-hydroxybenzylidene)propanehydrazide)] came in with a melting point of 223 to 224 °C. In series [1], the IC50 at 24 h worked out at 77.7 µM.
For `O=C(CCn1c(=S)n(CCC(=O)NN=Cc2ccc(O)c(O)c2O)c2ccccc21)NN=Cc1ccc(O)c(O)c1O` [3k, 3,3′-(2-Thioxo-1H-benzo[d]imidazole-1,3(2H)-diyl)bis(N′-(2,3,4-trihydroxybenzylidene)propanehydrazide)], the melting point lay within 279 to 280 °C. Further, in series [1], the half-maximal inhibitory concentration (IC50) at 24 h was 65.3 µM. Further, the “lecithin peroxidation effect compared with 3a (in words)” value in series [2] is “statistically identical effect to 3a”.
Take `COc1cc(O)ccc1C=NNC(=O)CCn1c(=S)n(CCC(=O)NN=Cc2ccc(O)cc2OC)c2ccccc21` [3p, 3,3′-(2-Thioxo-1H-benzo[d]imidazole-1,3(2H)-diyl)bis(N′-(4-hydroxy-2-methoxybenzylidene)propanehydrazide)]: the melting point was in the range of 205 to 207 °C. For the same compound, the IC50 at 24 h in series [1] was > 250 µM. Also, in the series on SH-SY5Y cells, the negative logarithm of the IC50 (pIC50) was 3.60. Moreover, the “inhibitory effect on hMAOB activity (in words)” value in series [3] is “statistically significant MAO-B inhibitory effects”.
Regarding `O=c1c(O)c(-c2ccc(O)c(O)c2)oc2cc(O)cc(O)c12` [Quercetin, reference compound], the “sample/control absorbance ratio (% of the control), lecithin peroxidation” value in series [2] is “around 25%”.
The same measure, in the same setting: the value for `Cc1c(C)c2c(c(C)c1O)CCC(C)(C(=O)O)O2` (stereo not drawn) [Trolox, reference compound] was “around 25%”.

The record behind these values is article PMC9138090, “Study on the Neuroprotective, Radical-Scavenging and MAO-B Inhibiting Properties of New Benzimidazole Arylhydrazones as Potential Multi-Target Drugs for the Treatment of Parkinson’s Disease” (Antioxidants, 2022).
